These molecules were tested on rats (assay: Toxicity to rats, acute oral median lethal dose (LD50), Method A). Conditions: rat, ratio to aldicarb.
Assay type: in vivo, young female albino rats, derived from Sprague-Dawley stock
Description: Method A: Young female albino rats, derived from Sprague-Dawley stock and weighing between 175 and 200 g, were used. An initial screening was conducted to determine the general level of toxicity of the test compounds and to establish the dosing range to be used with each compound. The test materials were suspended in corn oil and administered directly into the stomachs of the rats, using a hypodermic syringe equipped with a ball-tipped intubating needle. A range of dosing levels was employed utilizing two rats at each level. […] This method was used to determine the toxicity to rats of the compounds of Examples I, II, and III and aldicarb.
`CSC(C)(C)C=NOC(=O)N(C)SN1CCOCC1` [Example II, 2-methyl-2-(methylthio)propanol O-[(N-methyl-N-morpholinosulfenyl)carbamoyl]oxime] was tested, and the “Enhancement LD50 Derivative/LD50 Aldicarb” value was 2.4.

Each molecule was assayed on Two-spotted spider mite (assay: Initial contact activity, leaf dip, two-spotted spider mite). Conditions: Tetranychus urticae, foliar, 48 h, initial, SM, 10 PPM, 48 hours; read-out: Percent Kill.
Assay type: in vivo, Tetranychus urticae Koch
Description: (§1) Initial Contact Activity: One half gram of test compound was dissolved in 40 ml of acetone and this solution was dispersed in 360 ml of water containing one drop of isooctylphenyl polyethoxyethanol. Aliquots of this solution, which corresponds to 1250 ppm of active ingredient, were diluted with an appropriate amount of water to provide solutions containing various concentrations of active ingredient. Test organisms and techniques were as follows: The activity against the Mexican bean beetle (Epilachna varivestis Muls.) and the southern armyworm (Spodoptera eridania [Cram.]) was evaluated by dipping the leaves of pinto bean plants into the test solution and infesting the leaves with the appropriate immature-form insects when the foiliage had dried; the activity against the pea aphid (Acyrthosiphon pisum [Harris]) was evaluated on broad bean plants whose leaves were dipped before infestation with adult aphids; the activity against two-sotted spider mites (Tetranychus urticae Koch) was evaluated on pinto bean plants whose leaves were dipped after infestation with adult mites; the activity against the milkweed bug (Oncopeltus fasciatus [Dallas]), and the plum curculio (Conotrachelus nenuphar [Herbst]) was evaluated by spraying the test solutions into glass dishes or jars containing the adult insects; the activity against the confused flour beetle (Tribolium confusum duVal) was evaluated by introducing the insects into glass dishes which had been previously sprayed with test solution and allowed to dry. All organisms in the test were maintained in a holding room at 80° F and 50% relative humidity for an exposure period of 48 hours. At the end of this time, the dead and living insects or mites were counted, and the percent kill was calculated.
For `CSC(C)(C)C=NOC(=O)N(C)SN1CCOCC1` [Example II, 2-methyl-2-(methylthio)propanol O-[(N-methyl-N-morpholinosulfenyl)carbamoyl]oxime], the mortality at 10 ppm was 100%.

Same assay, conditions: Tetranychus urticae, foliar, 48 h, initial, SM, 39 PPM, 48 hours; read-out: Percent Kill
With `CSC(C)(C)C=NOC(=O)N(C)SN1CCOCC1` [Example II, 2-methyl-2-(methylthio)propanol O-[(N-methyl-N-morpholinosulfenyl)carbamoyl]oxime] the mortality at 39 ppm was 100%.

Same assay, conditions: Tetranychus urticae, foliar, 48 h, initial, SM, 156 PPM, 48 hours; read-out: Percent Kill
With `CSC(C)(C)C=NOC(=O)N(C)SN1CCOCC1` [Example II, 2-methyl-2-(methylthio)propanol O-[(N-methyl-N-morpholinosulfenyl)carbamoyl]oxime] the mortality at 156 ppm was 100%.

Same assay, conditions: Tetranychus urticae, foliar, 48 h, initial, SM, 1250 PPM, 48 hours; read-out: Percent Kill
With `CSC(C)(C)C=NOC(=O)N(C)SN1CCOCC1` [Example II, 2-methyl-2-(methylthio)propanol O-[(N-methyl-N-morpholinosulfenyl)carbamoyl]oxime] the mortality at 1250 ppm was 100%.

These molecules were tested on Milkweed bug (assay: Initial contact activity, spray, milkweed bug). Conditions: Oncopeltus fasciatus, 48 h, initial, MWB, 10 PPM, 48 hours; read-out: Percent Kill.
Assay type: in vivo, Oncopeltus fasciatus [Dallas]
Description: as §1
With `CSC(C)(C)C=NOC(=O)N(C)SN1CCOCC1` [Example II, 2-methyl-2-(methylthio)propanol O-[(N-methyl-N-morpholinosulfenyl)carbamoyl]oxime] the mortality at 10 ppm was 25%.

Same assay, conditions: Oncopeltus fasciatus, 48 h, initial, MWB, 39 PPM, 48 hours; read-out: Percent Kill
With `CSC(C)(C)C=NOC(=O)N(C)SN1CCOCC1` [Example II, 2-methyl-2-(methylthio)propanol O-[(N-methyl-N-morpholinosulfenyl)carbamoyl]oxime] the mortality at 39 ppm was 100%.

Same assay, conditions: Oncopeltus fasciatus, 48 h, initial, MWB, 156 PPM, 48 hours; read-out: Percent Kill
`CSC(C)(C)C=NOC(=O)N(C)SN1CCOCC1` [Example II, 2-methyl-2-(methylthio)propanol O-[(N-methyl-N-morpholinosulfenyl)carbamoyl]oxime] gave a mortality at 156 ppm of 100%.

Same assay, conditions: Oncopeltus fasciatus, 48 h, initial, MWB, 1250 PPM, 48 hours; read-out: Percent Kill
Molecule `CSC(C)(C)C=NOC(=O)N(C)SN1CCOCC1` [Example II, 2-methyl-2-(methylthio)propanol O-[(N-methyl-N-morpholinosulfenyl)carbamoyl]oxime] has a mortality at 1250 ppm of 100%.

What follows are molecules tested on Pea aphid (assay: Systemic activity, soil-watering, pea aphid). Conditions: Acyrthosiphon pisum, 48 h, systemic, PA, 10 PPM; read-out: Percent Kill.
Assay type: in vivo, Acyrthosiphon pisum [Harris]
Description: as §1
Systemic Activity: Systemic activity was measured using a soil-watering technique. Test organisms were Mexican bean beetle, southern armyworm, pea aphid, and mites on plants as described above in this Example. With appropriate precautions to avoid contact of the solution with the test plant surfaces, 25 ml of a test solution, prepared as above to contain the desired amount of active ingredient, were poured evenly over the surface of the soil in which the plant was growing. The treated plants were maintained under normal growing conditions for three days to permit translocation of the toxicant, after which the leaves were infested. Two days after infestation, counts of living and dead insects were made.
For `CSC(C)(C)C=NOC(=O)N(C)SN1CCOCC1` [Example II, 2-methyl-2-(methylthio)propanol O-[(N-methyl-N-morpholinosulfenyl)carbamoyl]oxime], the mortality at 10 ppm was 40%.

Same assay, conditions: Acyrthosiphon pisum, 48 h, systemic, PA, 39 PPM; read-out: Percent Kill
Work on `CSC(C)(C)C=NOC(=O)N(C)SN1CCOCC1` [Example II, 2-methyl-2-(methylthio)propanol O-[(N-methyl-N-morpholinosulfenyl)carbamoyl]oxime] yielded a mortality at 39 ppm of 100%.

These molecules were tested on Granary Weevil (assay: Initial contact activity, granary weevil). Conditions: Sitophilus granarius, 48 h, initial, GW, 156 PPM, 48 hours; read-out: Percent Kill.
Assay type: in vivo
`CSC(C)(C)C=NOC(=O)N(C)SN1CCOCC1` [Example II, 2-methyl-2-(methylthio)propanol O-[(N-methyl-N-morpholinosulfenyl)carbamoyl]oxime] gave a mortality at 156 ppm of 100%.

Same assay, conditions: Sitophilus granarius, 48 h, initial, GW, 312 PPM, 48 hours; read-out: Percent Kill
`CSC(C)(C)C=NOC(=O)N(C)SN1CCOCC1` [Example II, 2-methyl-2-(methylthio)propanol O-[(N-methyl-N-morpholinosulfenyl)carbamoyl]oxime] gave a mortality at 312 ppm of 100%.

Same assay, conditions: Sitophilus granarius, 48 h, initial, GW, 1250 PPM, 48 hours; read-out: Percent Kill
`CSC(C)(C)C=NOC(=O)N(C)SN1CCOCC1` [Example II, 2-methyl-2-(methylthio)propanol O-[(N-methyl-N-morpholinosulfenyl)carbamoyl]oxime] was tested, and the mortality at 1250 ppm was 100%.

What follows are molecules tested on Southern armyworm (assay: Initial contact activity, leaf dip, southern armyworm). Conditions: Spodoptera eridania, foliar, 48 h, initial, AW, 156 PPM, 48 hours; read-out: Percent Kill.
Assay type: in vivo, Spodoptera eridania [Cram.]
Description: as §1
`CSC(C)(C)C=NOC(=O)N(C)SN1CCOCC1` [Example II, 2-methyl-2-(methylthio)propanol O-[(N-methyl-N-morpholinosulfenyl)carbamoyl]oxime] was tested, and the mortality at 156 ppm was 0%.

Same assay, conditions: Spodoptera eridania, foliar, 48 h, initial, AW, 312 PPM, 48 hours; read-out: Percent Kill
With `CSC(C)(C)C=NOC(=O)N(C)SN1CCOCC1` [Example II, 2-methyl-2-(methylthio)propanol O-[(N-methyl-N-morpholinosulfenyl)carbamoyl]oxime] the mortality at 312 ppm was 0%.

Same assay, conditions: Spodoptera eridania, foliar, 48 h, initial, AW, 625 PPM, 48 hours; read-out: Percent Kill
`CSC(C)(C)C=NOC(=O)N(C)SN1CCOCC1` [Example II, 2-methyl-2-(methylthio)propanol O-[(N-methyl-N-morpholinosulfenyl)carbamoyl]oxime] was tested, and the mortality at 625 ppm was 70%.

Same assay, conditions: Spodoptera eridania, foliar, 48 h, initial, AW, 1250 PPM, 48 hours; read-out: Percent Kill
`CSC(C)(C)C=NOC(=O)N(C)SN1CCOCC1` [Example II, 2-methyl-2-(methylthio)propanol O-[(N-methyl-N-morpholinosulfenyl)carbamoyl]oxime] showed a mortality at 1250 ppm of 100%.

These molecules were tested on Milkweed bug (assay: Residual (7-day) contact activity, milkweed bug). Conditions: Oncopeltus fasciatus, 168 h, residual 7-day, MWB, 156 PPM; read-out: Percent Kill.
Assay type: in vivo, Oncopeltus fasciatus [Dallas]
Description: as §1
Residual Contact Activity: The residual contact activity of the compounds was determined on the same organisms using the techniques described above, except that in each case the treated surface was allowed to dry and was exposed to normal light and air for seven days before introduction of the mites or insects.
For `CSC(C)(C)C=NOC(=O)N(C)SN1CCOCC1` [Example II, 2-methyl-2-(methylthio)propanol O-[(N-methyl-N-morpholinosulfenyl)carbamoyl]oxime], the mortality at 156 ppm was 100%.

Same assay, conditions: Oncopeltus fasciatus, 168 h, residual 7-day, MWB, 312 PPM; read-out: Percent Kill
`CSC(C)(C)C=NOC(=O)N(C)SN1CCOCC1` [Example II, 2-methyl-2-(methylthio)propanol O-[(N-methyl-N-morpholinosulfenyl)carbamoyl]oxime] was tested, and the mortality at 312 ppm was 100%.

Same assay, conditions: Oncopeltus fasciatus, 168 h, residual 7-day, MWB, 1250 PPM; read-out: Percent Kill
`CSC(C)(C)C=NOC(=O)N(C)SN1CCOCC1` [Example II, 2-methyl-2-(methylthio)propanol O-[(N-methyl-N-morpholinosulfenyl)carbamoyl]oxime] was tested, and the mortality at 1250 ppm was 100%.

From US4108991A, “N-aminosulfenyl derivatives of aldicarb” (priority 1976, dated 1978)
